# Like-named read-outs stand apart in the source and are kept apart here.
# Test system: BT474 xenografts
# Conditions: for tumor SUV, % of pretreatment SUV: mice without DOX (n=8), mean±SD
structure (smiles),measurement,setting,value
"OC[C@H]1OC(O)[C@H]([18F])[C@@H](O)[C@@H]1O (stereo partly shown) [Agent F-18-FDG, 2’-F-18-fluorodeoxyglucose]",muscle uptake in contralateral normal thigh,"PET imaging, mouse bearing BT474 tumor in the right thigh",significant
same,"tumor SUV, % of pretreatment SUV",3rd week,108±28%
same,"tumor SUV, % of pretreatment SUV",5th week,151±8%
same,"tumor SUV, % of pretreatment SUV",7th week,152±355%

# — article PMC5842439 (Nuclear medicine and biology, 2013)
